Experiment [1] deals with HCT116-MTAP-KO. Description: Compounds cell killing in HCT116 isogenic pair (Cell Titer-Glo viability), MTAP-KO cells. To be noted: Homo sapiens, HCT-116, 144 h, 6 days, 0-10 μM compound, * = more than 50% viability inhibition at tested concentration without a full curve. The experiment is classed as cell-based. From the text: (§1) HCT116 cell line was obtained from ATCC (CCL-247). It has a mutation in codon 13 of the ras proto-oncogene and can be used as a positive control for PCR assays of mutation in this codon. HCT116-MTAP-KO was knocked-out-MTAP-gene based HCT116, and one single clone was passed for this assay. HCT116-mock-RNA-KO was knocked-out-mock-gene based HCT116 with MTAP wildtype genotype. The base medium for HCT116 isogenic pair is RPMI 1640, HEPES (Gibco, 22400105). To make the complete growth medium, add the following components to the base medium: fetal bovine serum to a final concentration of 10% (Gibco, 10099-141C). The cell line was grown in a humidified 5% CO2 atmosphere at 37° C. and regularly tested for the presence of mycoplasma with MycoAlert™ PLUS Mycoplasma Detection Kit (Lonza, LT07-710).
(§2) • Seed HCT116-mock-RNA-KO (400/well) or HCT116-MTAP-KO (400/well) cells into a 96-well plate (Greiner: 655090), 100 μL/well. • Incubate at 37° C., 5% CO2, overnight. • Add 50 μL fresh growth-medium containing serial dilution of compounds for a final compound concentration of 0-10 μM to each well. • Incubate at 37° C., 5% CO2, 6 days. • The cell viability detected by Cell Titer-Glo (Promega, G7573). Add 70 μL of CellTiter-Glo® reagent in each well. • Incubate at room temperature for 10 minutes to stabilize luminescent signal. • Analyze with Microplate Reader (TECAN, SPARK) and fit IC50 using Prism® 9.

Experiment [2] has as its system HCT116-mock-RNA-KO. In words: Compounds cell killing in HCT116 isogenic pair (Cell Titer-Glo viability), mock-RNA-KO cells (MTAP wildtype). It is filed as cell-based. To be noted: Homo sapiens, HCT-116, 144 h, 6 days, 0-10 μM compound.
From the text: as §1, §2
For orientation: In ATP-based viability assays light output follows the ATP content of the culture.

A value given as a limit tells only on which side of the number the result lay.

As a reminder, the IC50 is the concentration at which inhibition is half-maximal. Low values mean inhibition by little substance, high ones a need for much substance. In the case of `Cc1cc2[nH]c(C(=O)N(Cc3ccc(-c4c(F)cccc4F)cn3)C3CCCc4c(C(C)(C)O)ccnc43)cc2nc1N` (stereo not shown) [Example A7, 5-amino-N-((5-(2,6-difluorophenyl)pyridin-2-yl)methyl)-N-(4-(2-hydroxypropan-2-yl)-5,6,7,8-tetrahydroquinolin-8-yl)-6-methyl-1H-pyrrolo[3,2-b]pyridine-2-carboxamide], the IC50 was less than 4.6 nM in experiment [1] and 339 nM in experiment [2].
As for `Cc1cc2[nH]c(C(=O)N(Cc3ccc(-c4c(F)cccc4Cl)cn3)C3CCCc4cccnc43)cc2nc1N` (stereo not shown) [Example A14, 5-amino-N-((5-(2-chloro-6-fluorophenyl)pyridin-2-yl)methyl)-6-methyl-N-(5,6,7,8-tetrahydroquinolin-8-yl)-1H-pyrrolo[3,2-b]pyridine-2-carboxamide], the IC50 in experiment [1] came out at 2.9 nM; in experiment [2], 1120 nM.
Take `Nc1nc2cc(C(=O)N(Cc3ccc(-c4c(F)cccc4F)cn3)[C@@H]3CCCc4cccnc43)[nH]c2cc1Br` [Example A12, (R)-5-amino-6-bromo-N-((5-(2,6-difluorophenyl)pyridin-2-yl)methyl)-N-(5,6,7,8-tetrahydroquinolin-8-yl)-1H-pyrrolo[3,2-b]pyridine-2-carboxamide]: the IC50 in experiment [1] was less than 4.6 nM; in experiment [2], 661 nM.
On the same counts, the results for `Cc1cc2[nH]c(C(=O)N(Cc3cc(Cl)c(-c4ccccc4)cn3)[C@@H]3CCCc4cccnc43)cc2nc1N` [Example A8, (R)-5-amino-N-((4-chloro-5-phenylpyridin-2-yl)methyl)-6-methyl-N-(5,6,7,8-tetrahydroquinolin-8-yl)-1H-pyrrolo[3,2-b]pyridine-2-carboxamide] are less than 4.6 nM and 2040 nM.
As for `Cc1cc2[nH]c(C(=O)N(Cc3ccc(-c4c(F)cccc4F)cn3)[C@@H]3CCCc4c(C5CC5)ccnc43)cc2nc1N` (stereo in doubt) [Example A6, 5-amino-N-(4-cyclopropyl-5,6,7,8-tetrahydroquinolin-8-yl)-N-((5-(2,6-difluorophenyl)pyridin-2-yl)methyl)-6-methyl-1H-pyrrolo[3,2-b]pyridine-2-carboxamide], the figures for the IC50 in experiment [1] and in experiment [2] were less than 4.6 nM and 1490 nM, respectively.

The values are drawn from US20250340554A1, “5-Amino-1H-Pyrrolo[3,2-b]Pyridine-2-Carboxamide Derivatives as MTA-Cooperative Inhibitors of PRMT5” (BeOne Medicines I GmbH, priority 2023, published 2025).
